ChEMBL document CHEMBL1153593, “Recent developments in the design and synthesis of hybrid molecules based on aminoquinoline ring and their antiplasmodial evaluation” (Eur J Med Chem, 2009)
≈ marks a conversion by molar mass, not a printed value.

Columns and labels:
[1] = Inhibition of Plasmodium falciparum falcipain-2
Plasmodium falciparum [2] = test: Antimalarial activity against Plasmodium falciparum NF54; conditions: NF-54
Plasmodium yoelii [3] = test: Antimalarial activity as mean survival time against Plasmodium yoelii N67 infected Swiss mice (Mus musculus); type: functional, N-67
Plasmodium yoelii [4] = test: Antimalarial activity as reduced parasitaemia at day 4 against Plasmodium yoelii N67 infected Swiss mice (Mus musculus) compared to chloroquine; type: functional, N-67; set-up: concentration or dose not given beside the values
Plasmodium falciparum [5] = test: Antimalarial activity against Plasmodium falciparum FcB1R; conditions: read-out: ED50 (the source's name)
Plasmodium falciparum [6] = test: Antimalarial activity against chloroquine-resistant Plasmodium falciparum K1; type: functional, organism-based
Plasmodium falciparum [7] = test: microbe, parasite or virus in culture; conditions: D10
Description: Antimalarial activity against chloroquine-sensitive Plasmodium falciparum D10

Plasmodium falciparum [8] = test: Antimalarial activity against chloroquine-resistant Plasmodium falciparum W2; type: functional, organism-based
Plasmodium berghei [9] = test: Gametocytocidal activity as oocysts per mosquito against Plasmodium berghei; type: functional
[10] = Stability assessed as hydrolysis to metabolite in presence of 80% human plasma; type: ADME, cell-free
Plasmodium berghei [11] = test: Gametocytocidal activity as infected mosquitoes against Plasmodium berghei at 10 uM/kg; type: functional
Plasmepsin II = Plasmepsin II (Plasmodium falciparum, UniProt P46925); test: Inhibition of Plasmodium falciparum plasmepsin-2
Plasmodium falciparum [12] = test: Antimalarial activity against chloroquine-resistant Plasmodium falciparum Dd2; type: functional, organism-based
Plasmodium falciparum [13] = test: Antimalarial activity against Plasmodium falciparum 3D7; type: functional, organism-based

Plasmepsin II, sequence (P46925 whole entry): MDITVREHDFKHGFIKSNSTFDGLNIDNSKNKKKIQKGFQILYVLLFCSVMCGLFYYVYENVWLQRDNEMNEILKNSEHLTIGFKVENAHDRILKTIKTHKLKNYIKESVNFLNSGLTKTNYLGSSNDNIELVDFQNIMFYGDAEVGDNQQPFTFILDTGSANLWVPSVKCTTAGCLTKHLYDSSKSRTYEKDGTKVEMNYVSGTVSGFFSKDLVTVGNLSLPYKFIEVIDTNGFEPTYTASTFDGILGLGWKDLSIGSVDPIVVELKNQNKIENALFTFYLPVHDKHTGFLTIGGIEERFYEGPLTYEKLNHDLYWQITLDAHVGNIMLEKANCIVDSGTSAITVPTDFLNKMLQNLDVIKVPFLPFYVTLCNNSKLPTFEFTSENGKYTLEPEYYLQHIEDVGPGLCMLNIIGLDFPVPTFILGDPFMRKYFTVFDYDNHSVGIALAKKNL

SMILES: O=C(NCCNc1ccnc2cc(Cl)ccc12)N/N=C/c1ccc(O)c(CN2CCCC2)c1O
- IC50 [1]: 0.72 µM

SMILES: O=C1CCSC(c2ccc(Cl)cc2)N1CCNc1ccnc2cc(Cl)ccc12 (stereo not drawn)
- IC50 (Plasmodium falciparum [2]): 13 nM
- MIC (Plasmodium falciparum [2]): 0.26 µM (≈ 0.112 µg/mL)
- Survival (Plasmodium yoelii [3]): 15.2 days
- Activity (Plasmodium yoelii [4]): 81%

SMILES: O=C1c2ccccc2SC(c2c(Cl)cccc2Cl)N1CCCNc1ccnc2cc(Cl)ccc12 (stereo not drawn)
- IC50 (Plasmodium falciparum [2]): 14 nM
- MIC (Plasmodium falciparum [2]): 0.28 µM (≈ 0.148 µg/mL)
- Survival (Plasmodium yoelii [3]): 13.8 days
- Activity (Plasmodium yoelii [4]): 23.5%

SMILES: O=C(CN1CCCCC1)Nc1cc(COC(=O)CCCCC2=CC(=O)c3ccccc3C2=O)cc(Nc2ccnc3ccc(Cl)cc23)c1
- EC50 (Plasmodium falciparum [5]): 23 nM

SMILES: NC(=S)N/N=C1/C(=O)N(CCNc2ccnc3cc(Cl)ccc23)c2ccc(Cl)cc21
- IC50 (Plasmodium falciparum [6]): 54 nM
- IC50 (Plasmodium falciparum [7]): 95 nM

SMILES: CC(C)(C)NC(=O)C1(C)CCC(=O)N1CCCCCCNc1ccnc2cc(Cl)ccc12 (stereo not drawn)
- IC50 (Plasmodium falciparum [8]): 180 nM

SMILES: COc1cc(NC(C)CCCN2C(=O)[C@@H](CC(C)C)NC2(C)C)c2ncccc2c1 (stereo partly drawn)
- Activity (Plasmodium berghei [9]): 13.7
- Stability [10]: Stable
- Activity (Plasmodium berghei [11]): 30%

SMILES: CCCCNC(=O)C[C@H](O)[C@H](CC(C)C)NC(=O)[C@@H](NC(=O)c1ccc(Oc2ccc(C(=O)N[C@H](C(=O)N[C@H](CCCCN)C(=O)NCCCC(C)Nc3cc(OC)cc4cccnc34)C(C)C)cc2)cc1)[C@H](C)CC (stereo partly drawn)
- IC50 (Plasmepsin II): 0.59 µM
- IC50 (Plasmodium falciparum [7]): 400 nM
- IC50 (Plasmodium falciparum [8]): 700 nM

SMILES: CN1CCN(Cc2c(O)ccc(/C=N/NC(=O)NCCNc3ccnc4cc(Cl)ccc34)c2O)CC1
- IC50 [1]: > 20 µM

SMILES: COc1cc(NC(C)CCCN2C(=O)[C@@H](Cc3ccccc3)NC23CCCCC3)c2ncccc2c1 (stereo partly drawn)
- Activity (Plasmodium berghei [9]): 71
- Stability [10]: Stable
- Activity (Plasmodium berghei [11]): 83%

SMILES: COc1cc(NC(C)CCCN2C(=O)[C@@H](C)NC23CCCCC3)c2ncccc2c1 (stereo partly drawn)
- Activity (Plasmodium berghei [9]): 0.8
- Activity (Plasmodium berghei [11]): 20%

SMILES: CC(C)(C)C(=O)CN(CCNc1ccnc2cc(Cl)ccc12)C(=O)c1ccncc1
- IC50 (Plasmodium falciparum [6]): 1100 nM
- IC50 (Plasmodium falciparum [7]): 1060 nM
- IC50 (Plasmodium falciparum [8]): 991 nM

SMILES: O=C(CN(CCCNc1ccnc2cc(Cl)ccc12)C(=O)c1ccncc1)C1CCCCC1
- IC50 (Plasmodium falciparum [6]): 73 nM
- IC50 (Plasmodium falciparum [7]): 237 nM
- IC50 (Plasmodium falciparum [8]): 1570 nM

SMILES: O=C(CN1CCCCC1)Nc1cc(COC(=O)CCC2=CC(=O)c3ccccc3C2=O)cc(Nc2ccnc3ccc(Cl)cc23)c1
- EC50 (Plasmodium falciparum [5]): 23 nM

SMILES: NC(=O)N/N=C/c1ccc(O)c(CN2CCN(c3ccnc4cc(Cl)ccc34)CC2)c1O
- IC50 [1]: > 20 µM

SMILES: O=C1c2ccccc2SC(c2ccc(Cl)cc2)N1CCCNc1ccnc2cc(Cl)ccc12 (stereo not drawn)
- IC50 (Plasmodium falciparum [2]): 138 nM
- MIC (Plasmodium falciparum [2]): 0.27 µM (≈ 0.134 µg/mL)
- Survival (Plasmodium yoelii [3]): 10.6 days
- Activity (Plasmodium yoelii [4]): 40.08%

SMILES: CC1(C(=O)NC2CCCCC2)CCCC(=O)N1CCCCCCNc1ccnc2cc(Cl)ccc12 (stereo not drawn)
- IC50 [1]: 17.6 µM
- IC50 (Plasmodium falciparum [8]): 96 nM

SMILES: Cc1ccc2c(c1)/C(=N\NC(N)=S)C(=O)N2CCNc1ccnc2cc(Cl)ccc12
- IC50 [1]: 11.6 µM
- IC50 (Plasmodium falciparum [6]): 100 nM
- IC50 (Plasmodium falciparum [7]): 79 nM
- IC50 (Plasmodium falciparum [8]): 51 nM

SMILES: CCN(CC)Cc1c(O)ccc(/C=N/NC(=O)NCCNc2ccnc3cc(Cl)ccc23)c1O
- IC50 [1]: 2.6 µM

SMILES: O=C(CN(CCCNc1ccnc2cc(Cl)ccc12)C(=O)c1ccc(O)cc1O)C1CCCCC1
- IC50 (Plasmodium falciparum [6]): 3830 nM
- IC50 (Plasmodium falciparum [7]): 1670 nM
- IC50 (Plasmodium falciparum [8]): 5940 nM

SMILES: CC(C)(C)C(=O)CN(CCCNc1ccnc2cc(Cl)ccc12)C(=O)c1cnccn1
- IC50 (Plasmodium falciparum [6]): 2290 nM
- IC50 (Plasmodium falciparum [7]): 1380 nM
- IC50 (Plasmodium falciparum [8]): 1650 nM

SMILES: CCCCN(CCCNc1ccnc2cc(Cl)ccc12)Cc1cc(Br)ccc1O
- IC50 (Plasmodium falciparum [12]): 45 nM
- IC50 (Plasmodium falciparum [8]): 45 nM
- IC50 (Plasmodium falciparum [13]): 45 nM

SMILES: COc1cc(NC(C)CCCN2C(=O)CNC23CCCCC3)c2ncccc2c1 (stereo not drawn)
- Activity (Plasmodium berghei [9]): 7.4
- Stability [10]: Stable
- Activity (Plasmodium berghei [11]): 25%

SMILES: O=C(CN(CCCNc1ccnc2cc(Cl)ccc12)C(=O)c1cnccn1)C1CCCCC1
- IC50 (Plasmodium falciparum [6]): 521 nM
- IC50 (Plasmodium falciparum [7]): 242 nM
- IC50 (Plasmodium falciparum [8]): 877 nM

SMILES: CC(C)(C)C(=O)CN(CCCNc1ccnc2cc(Cl)ccc12)C(=O)c1ccncc1
- IC50 (Plasmodium falciparum [6]): 18200 nM
- IC50 (Plasmodium falciparum [7]): > 20000 nM
- IC50 (Plasmodium falciparum [8]): 3810 nM

SMILES: COc1cc(NC(C)CCCN2C(=O)[C@@H](C(C)C)NC2(C)C)c2ncccc2c1 (stereo partly drawn)
- Activity (Plasmodium berghei [9]): 5
- Stability [10]: Stable
- Activity (Plasmodium berghei [11]): 25%

SMILES: COc1cc(NC(C)CCCN2C(=O)[C@@H](C(C)C)NC23CCCCC3)c2ncccc2c1 (stereo partly drawn)
- Activity (Plasmodium berghei [9]): 61.1
- Stability [10]: Stable
- Activity (Plasmodium berghei [11]): 85%

SMILES: CCCCNC(=O)C[C@H](O)[C@H](CC(C)C)NC(=O)[C@@H](NC(=O)Cc1ccc2cc(C(=O)OCCCC(=O)N[C@H](C(=O)N[C@H](CCCCN)C(=O)NCCCC(C)Nc3cc(OC)cc4cccnc34)C(C)C)ccc2c1)[C@H](C)CC (stereo partly drawn)
- IC50 (Plasmepsin II): 9.6 µM
- IC50 (Plasmodium falciparum [7]): 3300 nM
- IC50 (Plasmodium falciparum [8]): 1000 nM

SMILES: O=C(NCCNc1ccnc2cc(Cl)ccc12)N/N=C/c1ccc(O)c(CN2CCN(c3ccnc4cc(Cl)ccc34)CC2)c1O
- IC50 [1]: 3.16 µM

SMILES: CCCCNC(=O)C[C@H](O)[C@H](CC(C)C)NC(=O)[C@@H](NC(=O)Cc1ccc(CC(=O)N[C@H](C(=O)N[C@H](CCCCN)C(=O)NCCCC(C)Nc2cc(OC)cc3cccnc23)C(C)C)cc1)[C@H](C)CC (stereo partly drawn)
- IC50 (Plasmepsin II): 135 µM
- IC50 (Plasmodium falciparum [7]): 5500 nM
- IC50 (Plasmodium falciparum [8]): 4200 nM

SMILES: COc1cc(NC(C)CCCN2C(=O)[C@@H](C(C)C)NC23CCCC3)c2ncccc2c1 (stereo partly drawn)
- Activity (Plasmodium berghei [9]): 4.2
- Activity (Plasmodium berghei [11]): 35%

SMILES: COc1cc(NC(C)CCCN2C(=O)[C@@H](Cc3ccccc3)NC23CCCCCC3)c2ncccc2c1 (stereo partly drawn)
- Activity (Plasmodium berghei [9]): 78.9
- Stability [10]: Stable
- Activity (Plasmodium berghei [11]): 90%

SMILES: O=C(CN1CCCCC1)Nc1cc(COC(=O)CCCCCC2=CC(=O)c3cccc(O)c3C2=O)cc(Nc2ccnc3ccc(Cl)cc23)c1
- EC50 (Plasmodium falciparum [5]): 23 nM

SMILES: CCCCN(CCCNc1ccnc2cc(Cl)ccc12)Cc1ccsc1
- IC50 (Plasmodium falciparum [12]): 45 nM
- IC50 (Plasmodium falciparum [8]): 50 nM
- IC50 (Plasmodium falciparum [13]): 50 nM

SMILES: CC(C)(C)C(=O)CN(CCNc1ccnc2cc(Cl)ccc12)C(=O)c1cnccn1
- IC50 (Plasmodium falciparum [6]): 1130 nM
- IC50 (Plasmodium falciparum [7]): 712 nM
- IC50 (Plasmodium falciparum [8]): 1190 nM

SMILES: COc1cc(NC(C)CCCN2C(=O)[C@@H](Cc3ccccc3)NC2(C)C)c2ncccc2c1 (stereo partly drawn)
- Activity (Plasmodium berghei [9]): 61.2
- Stability [10]: Stable
- Activity (Plasmodium berghei [11]): 76%

SMILES: CCCCNC(=O)C[C@H](O)[C@H](CC(C)C)NC(=O)[C@@H](NC(=O)Cc1ccc2cc(CC(=O)N[C@H](C(=O)N[C@H](CCCCN)C(=O)NCCCC(C)Nc3cc(OC)cc4cccnc34)C(C)C)ccc2c1)[C@H](C)CC (stereo partly drawn)
- IC50 (Plasmepsin II): 1.51 µM
- IC50 (Plasmodium falciparum [7]): 6200 nM
- IC50 (Plasmodium falciparum [8]): 4700 nM

SMILES: CC(C)(C)C(=O)CN(CCNc1ccnc2cc(Cl)ccc12)C(=O)c1ccc(O)cc1O
- IC50 (Plasmodium falciparum [6]): 5790 nM
- IC50 (Plasmodium falciparum [7]): 5660 nM
- IC50 (Plasmodium falciparum [8]): 4140 nM

SMILES: O=C1CSC(c2c(Cl)cccc2Cl)N1CCNc1ccnc2cc(Cl)ccc12 (stereo not drawn)
- IC50 (Plasmodium falciparum [2]): 39 nM
- MIC (Plasmodium falciparum [2]): 0.55 µM (≈ 0.249 µg/mL)
- Survival (Plasmodium yoelii [3]): 14.6 days
- Activity (Plasmodium yoelii [4]): 76.08%

SMILES: NC(=S)N/N=C/c1ccc(O)c(CN2CCN(c3ccnc4cc(Cl)ccc34)CC2)c1O
- IC50 [1]: 2.25 µM

SMILES: O=C(NCCNc1ccnc2cc(Cl)ccc12)N/N=C/c1ccc(O)c(CN2CCOCC2)c1O
- IC50 [1]: > 20 µM

SMILES: COc1cc(NC(C)CCCN2C(=O)[C@@H](C(C)C)NC23CCCCCC3)c2ncccc2c1 (stereo partly drawn)
- Activity (Plasmodium berghei [9]): 17.7
- Activity (Plasmodium berghei [11]): 65%

SMILES: COc1cc(NC(C)CCCN2C(=O)[C@@H](Cc3ccccc3)NC23CCCC3)c2ncccc2c1 (stereo partly drawn)
- Activity (Plasmodium berghei [9]): 51.6
- Activity (Plasmodium berghei [11]): 65%

SMILES: O=C(CN(CCNc1ccnc2cc(Cl)ccc12)C(=O)c1cnccn1)C1CCCCC1
- IC50 (Plasmodium falciparum [6]): 1350 nM
- IC50 (Plasmodium falciparum [7]): 793 nM
- IC50 (Plasmodium falciparum [8]): > 10000 nM

SMILES: O=C(CN(CCNc1ccnc2cc(Cl)ccc12)C(=O)c1ccncc1)C1CCCCC1
- IC50 (Plasmodium falciparum [6]): 531 nM
- IC50 (Plasmodium falciparum [7]): 540 nM
- IC50 (Plasmodium falciparum [8]): 619 nM

SMILES: CCCCN(CCCNc1ccnc2cc(Cl)ccc12)Cc1ccoc1
- IC50 (Plasmodium falciparum [12]): 45 nM
- IC50 (Plasmodium falciparum [8]): 70 nM
- IC50 (Plasmodium falciparum [13]): 50 nM

SMILES: NC(=S)N/N=C1/C(=O)N(CCNc2ccnc3cc(Cl)ccc23)c2ccccc21
- IC50 [1]: 14.7 µM
- IC50 (Plasmodium falciparum [6]): 710 nM
- IC50 (Plasmodium falciparum [7]): 320 nM
- IC50 (Plasmodium falciparum [8]): 240 nM

SMILES: O=C(CN1CCCCC1)Nc1cc(COC(=O)CCCCC2=CC(=O)c3cccc(O)c3C2=O)cc(Nc2ccnc3ccc(Cl)cc23)c1
- EC50 (Plasmodium falciparum [5]): 23 nM

SMILES: O=C(NCCNc1ccnc2cc(Cl)ccc12)N/N=C/c1ccc(O)c(CN2CCCCC2)c1O
- IC50 [1]: 0.63 µM

SMILES: COc1cc(NC(C)CCCN2C(=O)CNC2(C)C)c2ncccc2c1 (stereo not drawn)
- Activity (Plasmodium berghei [9]): 6.1
- Activity (Plasmodium berghei [11]): 21%
